Test results as given in EP0452101B1, “Spiro bridged and unbridged heterocyclic compounds” (ISRAEL INSTITUTE FOR BIOLOGICAL RESEARCH, priority 1990, dated 1991).

Test: Chemical stability (thermal, aqueous solution)
Format: physicochemical
Excerpt: Most of these compounds are relatively stable. […] Its chemical behaviour resembles that of known 2-oxazoline derivatives. […] The formation of the decomposition products can be monitored with ^1H-NMR by inspection at two regions δ 3.3-3.5 (appearance of two doublets) and 1.9-2.0 ppm (appearance of two additional singlets).
The expected decomposition pattern (when e.g., X is O and Y is N) involves opening of the oxazoline ring to form both amide and ester as shown in Scheme E, in which the quinuclidine-derived compounds are depicted illustratively. The formation of two new singlets at δ 1.9-2.0 ppm as expected for R = Me of these two structures are in agreement with this supposition. [drawing 32]
Ring opening is much faster in the presence of dilute hydrochloric acid. […] The tendency to decomposition of such salts complicates the optical separation of compounds such as AF125 and AF123. However, this problem can be overcome by using the method described for the optical separation of the enantiomers of AF125, or alternatively the amino-alcohols such as 3-aminomethylquinuclidin-3-ol can be resolved and the separated enantiomers can then be cyclized using an ester or imidate as already described. In yet another alternative the N-acyl derivatives of (e.g.) 3-aminomethylquinuclidin-3-ol can be resolved and the separated enantiomers can then be cyclized per se as shown in Scheme K: [drawing 33] […]

CC1=NCC2(CN3CCC2CC3)O1 (racemic) [AF125, 2-Methyl-spiro(1,3 oxazoline-5,3')quinuclidine]
thermal stability: thermally stable and can be distilled at 130° without decomposition
